Reference: patent US9102670B2, “Pyrido-, pyrazo- and pyrimido-pyrimidine derivatives as mTOR inhibitors” (KuDOS Pharmaceuticals Limited, priority 2006, dated 2015)
Where two headings read alike, the source gives them in different places.

Test system: phosphorylation of Serine 473 in Akt
Test: In Vitro Phospho-Ser473 Akt Assay in MDA-MB-468 cells
Assay type: cell-based
Details: Homo sapiens
[1] = MDA-MB-468, read-out: IC50 values against mTOR, phospho-Ser473 Akt assay, MDA-MB-468 cells
[2] = MDA-MB-468, read-out: IC50 values against mTOR, phospho-Ser473 Akt assay, MDA-MB-468 cells, upper bound

SMILES	IC50 [1]	IC50 [2]
CCOC(=O)C1CCN(c2nc(N3CCOC[C@@H]3C)c3ccc(-c4ccc(OC)c(CO)c4)nc3n2)CC1 [Example 18u]	< 100 nM	
Cc1ccc(-c2cnc3c(N4CCOC[C@@H]4C)nc(N4C[C@@H](C)O[C@@H](C)C4)nc3n2)cc1 [Example 12b]		< 1000 nM
COc1ccc(-c2ccc3c(N4CCOC[C@@H]4C)nc(N4CC[C@@H](O)C4)nc3n2)cc1CO [Example 18bn]	< 100 nM	
COc1ccc(-c2ccc3c(N4CCOC[C@@H]4C)nc(NC(C)C)nc3n2)cc1CO [Example 18br]	< 100 nM	
C[C@H]1COCCN1c1nc(N2CCOC[C@@H]2C)c2ccc(-c3cccnc3F)nc2n1 [Example 1p]	< 300 nM	
C[C@H]1COCCN1c1nc(N2CCOC[C@@H]2C)c2ccc(-c3cccc(C(=O)NCC(F)(F)F)c3)nc2n1 [Example 3f]		< 1000 nM
COc1ccc(-c2ccc3c(N4CCOC[C@@H]4C)nc(N4CCOC[C@@H]4C)nc3n2)cc1CNC1CCCCCCC1 [Example 4bf]	< 100 nM	
C[C@H]1COCCN1c1nc(N2CCOC[C@@H]2C)c2ccc(-c3cc(F)nc(F)c3)nc2n1 [Example 1ay]	< 300 nM	
C[C@H]1COCCN1c1nc(N2CCOC[C@@H]2C)c2ccc(-c3ccc4nc[nH]c(=O)c4c3)nc2n1 [Example 1cl]		< 1000 nM
CCCCNCc1cc(-c2ccc3c(N4CCOC[C@@H]4C)nc(N4CCOC[C@@H]4C)nc3n2)ccc1OC [Example 4ay]	< 100 nM	
COc1ccc(-c2ccc3c(N4CCOC[C@@H]4C)nc(N4CCSCC4)nc3n2)cc1CO [Example 18ch]	< 100 nM	
COc1ccc(-c2ccc3c(N4CCOC[C@@H]4C)nc(N4CCCCCC4)nc3n2)cc1CO [Example 18d]	< 100 nM	
C[C@H]1COCCN1c1nc(N2CCOC[C@@H]2C)c2ccc(-c3cccc(CNC4CCOCC4)c3)nc2n1 [Example 4m]	< 100 nM	
CC(C)NCc1cc(-c2ccc3c(N4CCOC[C@@H]4C)nc(N4CCOC[C@@H]4C)nc3n2)ccc1F [Example 4w]	< 100 nM	
CCNC(=O)c1cc(-c2ccc3c(N4CCOC[C@@H]4C)nc(N4CCOC[C@@H]4C)nc3n2)ccc1F [Example 1af]	< 100 nM	
C[C@H]1COCCN1c1nc(N2CCOC[C@@H]2C)c2ccc(-c3ccc(F)c(CNC(=O)C4CC4)c3)nc2n1 [Example 5v]	< 300 nM	
COc1ccc(-c2ccc3c(N4CCOC[C@@H]4C)nc(N4CCCC(O)C4)nc3n2)cc1CO (some centres unmarked) [Example 18k]	< 100 nM	
CC(C)C(=O)NCc1cc(-c2ccc3c(N4CCOC[C@@H]4C)nc(N4CCOC[C@@H]4C)nc3n2)ccc1F [Example 5w]		< 1000 nM
CNCc1ccc(-c2ccc3c(N4CCOC[C@@H]4C)nc(N4CCOC[C@@H]4C)nc3n2)cc1 [Example 4a]	< 100 nM	
C[C@H]1CCCCN1c1nc(N2CCOC[C@@H]2C)c2ccc(-c3ccc(Cl)cc3)nc2n1 [Example 18de]		< 1000 nM
COc1ccc(-c2ccc3c(N4CCOC[C@@H]4C)nc(N4CCOC[C@@H]4C)nc3n2)cc1C(N)=O [Example 14b]	< 100 nM	
CC(C)NC(=O)c1cccc(-c2ccc3c(N4CCOC[C@@H]4C)nc(N4CCOC[C@@H]4C)nc3n2)c1 [Example 1al]	< 100 nM	
CNCc1cccc(-c2ccc3c(N4CCOC[C@@H]4C)nc(N4CCOC[C@@H]4C)nc3n2)c1 [Example 4l]	< 100 nM	
COc1ccc(-c2ccc3c(N4CCOC[C@@H]4C)nc(-c4cccc(C(F)(F)F)c4)nc3n2)cc1CO [Example 19m]		< 1000 nM
COc1ccc(-c2ccc3c(N4CCOC[C@@H]4C)nc(N4CCOC[C@@H]4C)nc3n2)cc1CNCCC(C)C [Example 4at]	< 100 nM	
COC(=O)[C@@H]1CCCN1c1nc(N2CCOC[C@@H]2C)c2ccc(-c3ccc(OC)c(CO)c3)nc2n1 [Example 18ah]	< 100 nM	
C[C@@H]1CN(c2nc(N3CCOC[C@@H]3C)c3ccc(-c4ccoc4)nc3n2)C[C@H](C)O1 [Example 1cf]	< 300 nM	

SMILES	IC50 [1]	IC50 [2]
C[C@H]1COCCN1c1nc(N2CCC(C(N)=O)CC2)nc2nc(-c3ccc(Cl)cc3)ccc12 [Example 18dj]		< 1000 nM
COC(=O)c1cccc(-c2nc(N3CCOC[C@@H]3C)c3ccc(-c4ccc(OC)c(CO)c4)nc3n2)c1 [Example 19h]		< 1000 nM
COc1ccc(-c2ccc3c(N4CCOC[C@@H]4C)nc(N4CCCC(CN(C)C)C4)nc3n2)cc1CO (some centres unmarked) [Example 18as]	< 300 nM	
C[C@H]1COCCN1c1nc(N2CCOC[C@@H]2C)c2ccc(-c3ccc(F)c(CNC(=O)C(F)(F)F)c3)nc2n1 [Example 5z]		< 1000 nM
COc1cncc(-c2nc(N3CCOC[C@@H]3C)c3ccc(-c4cccc(CO)c4)nc3n2)c1 [Example 19s]		< 1000 nM
COc1ccc(-c2ccc3c(N4CCOC[C@@H]4C)nc(N4CCC(C(N)=O)CC4)nc3n2)cc1CO [Example 18v]	< 100 nM	
C[C@H]1COCCN1c1nc(N2CCCCC2CO)nc2nc(-c3cccc(C(N)=O)c3)ccc12 (some centres unmarked) [Example 2f]	< 300 nM	
COc1ccc(-c2ccc3c(N4CCOC[C@@H]4C)nc(N(C)CCO)nc3n2)cc1CO [Example 18cr]	< 100 nM	
COc1ccc(-c2ccc3c(N4CCOC[C@@H]4C)nc(N4CCC(c5cccc(O)c5)CC4)nc3n2)cc1CO [Example 18f]	< 100 nM	
COc1ccc(-c2ccc3c(N4CCOC[C@@H]4C)nc(N4CCOC[C@@H]4C)nc3n2)cc1F [Example 1bs]	< 100 nM	
COc1ccc(-c2ccc3c(N4CCOC[C@@H]4C)nc(N4CCCC4C)nc3n2)cc1CO (some centres unmarked) [Example 18ap]	< 100 nM	
COc1ccc(-c2ccc3c(N4CCOC[C@@H]4C)nc(N[C@@H](C)CO)nc3n2)cc1CO [Example 18bx]	< 300 nM	
CC(C)NCc1cccc(-c2ccc3c(N4CCOC[C@@H]4C)nc(N4CCOC[C@@H]4C)nc3n2)c1 [Example 4k]	< 100 nM	
CNCCOc1nc(N2CCOC[C@@H]2C)c2ccc(-c3ccc(OC)c(CO)c3)nc2n1 [Example 18db]	< 100 nM	
COc1ccc(-c2ccc3c(N4CCOC[C@@H]4C)nc(N4CCOC[C@@H]4C)nc3n2)cc1CNC1CCCCC1 [Example 4ao]	< 100 nM	
COc1ccc(-c2ccc3c(N4CCOC[C@@H]4C)nc(NC(CO)CO)nc3n2)cc1CO [Example 18cd]	< 300 nM	
C[C@H]1COCCN1c1nc(N2CCOC[C@@H]2C)c2ncc(-c3ccccc3)nc2n1 [Example 12d]	< 300 nM	
C[C@H]1COCCN1c1nc(N2CCOC[C@@H]2C)c2ccc(-c3ccc(F)cc3)nc2n1 [Example 1aa]	< 100 nM	
C[C@H]1COCCN1c1nc(N2CCOC[C@@H]2C)c2ccc(-c3cccc(CNCCO)c3)nc2n1 [Example 4h]	< 100 nM	
C[C@H]1COCCN1c1nc(N2CCOC[C@@H]2C)c2ccc(-c3cccc(CN)c3)nc2n1 [Example 4i]	< 100 nM	
C[C@@H]1CN(c2nc(N3CCOC[C@@H]3C)c3ccc(-c4cccc(CO)c4)nc3n2)C[C@H](C)O1 [Example 1bx]	< 300 nM	
COc1ccc(-c2ccc3c(N4CCOC[C@@H]4C)nc(N4CCOC[C@@H]4C)nc3n2)cc1CNCCc1cnc[nH]1 [Example 4be]	< 100 nM	
COc1ccc(-c2ccc3c(N4CCOC[C@@H]4C)nc(N(CCO)C(C)C)nc3n2)cc1CO [Example 18cs]	< 100 nM	
COC[C@@H](C)Nc1nc(N2CCOC[C@@H]2C)c2ccc(-c3ccc(OC)c(CO)c3)nc2n1 [Example 18bo]	< 100 nM	
C[C@H]1COCCN1c1nc(N2CCOC[C@@H]2C)c2ccc(-c3ccc(CNC4CCOCC4)cc3)nc2n1 [Example 4e]	< 100 nM	
COc1ccc(-c2ccc3c(N4CCOC[C@@H]4C)nc(-n4cnc(Br)c4)nc3n2)cc1CO [Example 18bb]	< 300 nM	
